Read-outs that look alike come from different tables or passages of the source.
How the values were obtained:
[1] = target: KRAS G12V (Homo sapiens, UniProt P01116+P62937, G12V); assay: Ras-Raf disruption/FRET/MOA assay, KRAS G12V; type: biochemical
Outline: (§1)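 His6-K-Ras-GMPPNP (12.5 nM) was incubated with GST-BRAF RBD (50 nM), tagless cyclophilin A (25 µM) and compound (10-point 3-fold series from 30 µM) in HEPES pH 7.3 buffer for 3 h at 25 °C. Anti-His Eu/anti-GST APC were then added for 1.5 h; disruption was read as a drop in TR-FRET ratio versus DMSO.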

[2] = target: T1, NRAS G12C (Homo sapiens, UniProt P01111+P62937, G12C); assay: Ras-Raf disruption/FRET/MOA assay, NRAS G12C; type: biochemical
T1 construct: His6
T1 sequence (P01111 whole entry G12C): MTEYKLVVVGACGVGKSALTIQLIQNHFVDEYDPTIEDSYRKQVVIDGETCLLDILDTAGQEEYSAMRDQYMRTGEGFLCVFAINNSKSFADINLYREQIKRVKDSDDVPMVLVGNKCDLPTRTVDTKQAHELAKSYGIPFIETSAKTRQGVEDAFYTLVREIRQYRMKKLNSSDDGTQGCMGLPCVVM
T1 sequence (P62937 whole entry): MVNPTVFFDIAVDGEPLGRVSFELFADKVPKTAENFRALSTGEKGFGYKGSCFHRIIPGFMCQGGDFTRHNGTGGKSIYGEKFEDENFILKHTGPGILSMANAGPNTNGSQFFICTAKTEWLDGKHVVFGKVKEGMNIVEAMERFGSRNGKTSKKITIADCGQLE
Outline: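 Disruption of Ras:RAF binding was read as a drop in TR-FRET ratio versus DMSO controls. The buffer was 25 mM HEPES pH 7.3, 0.002% Tween20, 0.1% BSA, 100 mM NaCl and 5 mM MgCl2. Compounds were tested as a 10-point 3-fold dilution series from 30 μM. Detection used 10 nM anti-His Eu-W1024 and 50 nM anti-GST allophycocyanin.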

[3] = target: KRAS G12C (Homo sapiens, UniProt P01116+P62937, G12C); assay: Ras-Raf disruption/FRET/MOA assay, KRAS G12C; type: biochemical
Chain of KRAS G12C (P01116 1-169 isoform P01116-2 G12C limits assumed): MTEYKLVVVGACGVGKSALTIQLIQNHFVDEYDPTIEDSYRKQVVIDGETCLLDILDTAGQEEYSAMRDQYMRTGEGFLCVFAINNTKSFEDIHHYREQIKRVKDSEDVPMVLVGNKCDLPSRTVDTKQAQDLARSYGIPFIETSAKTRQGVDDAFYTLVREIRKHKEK
Chain of KRAS G12C (P62937 whole entry): as the sequence (P62937 whole entry) above
Outline: as §1

[4] = target: KRAS G13C (Homo sapiens, UniProt P01116+P62937, G13C); assay: Ras-Raf disruption/FRET/MOA assay, KRAS G13C; type: biochemical
Chain of KRAS G13C (P01116 1-169 isoform P01116-2 G13C limits assumed): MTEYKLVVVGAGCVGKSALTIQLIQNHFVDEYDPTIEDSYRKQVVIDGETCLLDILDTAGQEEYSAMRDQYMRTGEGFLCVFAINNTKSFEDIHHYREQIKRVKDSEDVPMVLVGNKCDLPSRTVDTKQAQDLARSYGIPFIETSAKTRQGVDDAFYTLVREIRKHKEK
Chain of KRAS G13C (P62937 whole entry): as the sequence (P62937 whole entry) above
Outline: as §1

[5] = target: KRAS G12D (Homo sapiens, UniProt P01116+P62937, G12D); assay: Ras-Raf disruption/FRET/MOA assay, KRAS G12D; type: biochemical
Chain of KRAS G12D (P01116 1-169 isoform P01116-2 G12D limits assumed): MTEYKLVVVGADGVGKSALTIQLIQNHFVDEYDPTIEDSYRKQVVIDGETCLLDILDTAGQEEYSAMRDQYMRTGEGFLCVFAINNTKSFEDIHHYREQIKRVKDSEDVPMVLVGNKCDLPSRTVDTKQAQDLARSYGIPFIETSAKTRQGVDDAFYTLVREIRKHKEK
Chain of KRAS G12D (P62937 whole entry): as the sequence (P62937 whole entry) above
Outline: as §1

[6] = target: KRAS G12S (Homo sapiens, UniProt P01116+P62937, G12S); assay: Ras-Raf disruption/FRET/MOA assay, KRAS G12S; type: biochemical
Chain of KRAS G12S (P01116 1-169 isoform P01116-2 G12S limits assumed): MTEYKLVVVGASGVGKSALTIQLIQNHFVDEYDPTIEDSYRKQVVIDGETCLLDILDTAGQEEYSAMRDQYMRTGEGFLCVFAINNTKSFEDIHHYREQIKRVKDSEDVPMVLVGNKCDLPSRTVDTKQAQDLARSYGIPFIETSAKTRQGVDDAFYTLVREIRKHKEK
Chain of KRAS G12S (P62937 whole entry): as the sequence (P62937 whole entry) above
Outline: as §1

[7] = target: KRAS G13D (Homo sapiens, UniProt P01116+P62937, G13D); assay: Ras-Raf disruption/FRET/MOA assay, KRAS G13D; type: biochemical
Chain of KRAS G13D (P01116 1-169 isoform P01116-2 G13D limits assumed): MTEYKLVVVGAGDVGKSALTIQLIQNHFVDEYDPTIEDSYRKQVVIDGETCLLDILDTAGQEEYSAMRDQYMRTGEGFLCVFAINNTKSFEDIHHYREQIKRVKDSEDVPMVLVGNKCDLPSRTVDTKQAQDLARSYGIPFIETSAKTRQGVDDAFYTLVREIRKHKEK
Chain of KRAS G13D (P62937 whole entry): as the sequence (P62937 whole entry) above
Outline: as §1

[8] = tested on: AsPC-1 (K-Ras G12D); assay: Potency assay: pERK in AsPC-1 cells; type: cell-based; conditions: Homo sapiens
[9] = tested on: AsPC-1 (K-Ras G12D); assay: CellTiter-Glo cell viability assay, AsPC-1; type: cell-based; conditions: Homo sapiens, ASPC1, 120 h
Outline: (§2)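 Compounds dispensed directly onto seeded AsPC-1 (K-Ras G12D) or NCI-H358 (K-Ras G12C) cells; CellTiter-Glo luminescence read on day 5 after ~30 min equilibration to room temperature. Signal normalized to DMSO average (%) and fit by four-parameter logistic.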

[10] = tested on: NCI-H358 (K-Ras G12C); assay: CellTiter-Glo cell viability assay, H358; type: cell-based; conditions: Homo sapiens, NCI-H358, 120 h
Outline: as §2

[11] = target: KRAS WT (Homo sapiens, UniProt P01116+P62937); assay: Ras-Raf disruption/FRET/MOA assay, KRAS WT; type: biochemical
Chain of KRAS WT (P01116 1-169 isoform P01116-2 limits assumed): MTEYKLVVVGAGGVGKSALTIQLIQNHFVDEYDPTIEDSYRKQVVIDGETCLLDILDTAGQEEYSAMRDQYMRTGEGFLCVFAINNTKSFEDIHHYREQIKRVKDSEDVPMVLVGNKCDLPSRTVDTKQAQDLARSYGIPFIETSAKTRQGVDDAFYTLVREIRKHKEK
Chain of KRAS WT (P62937 whole entry): as the sequence (P62937 whole entry) above
Outline: as §1

[12] = NRAS G12C FRET data IC50, NRAS G12C
[13] = ASPC1, read-out: pERK EC50 (AsPC-1 KRAS G12D)
[14] = read-out: AsPC-1 Cell Viability IC50, AsPC-1, K-Ras G12D, 5-day treatment
[15] = read-out: H358 Cell Viability IC50, NCI-H358, K-Ras G12C, 5-day treatment
[16] = disruption of BRAF RBD binding, with Cyclophilin A, read-out: KRAS G12V FRET IC50
[17] = NRAS G12C, read-out: NRAS G12C FRET data IC50
[18] = disruption of BRAF RBD binding, with Cyclophilin A, read-out: KRAS G12C FRET IC50
[19] = disruption of BRAF RBD binding, with Cyclophilin A, read-out: KRAS G13C FRET IC50
[20] = disruption of BRAF RBD binding, with Cyclophilin A, read-out: KRAS G12D FRET IC50
[21] = disruption of BRAF RBD binding, with Cyclophilin A, read-out: KRAS G12S FRET IC50
[22] = disruption of BRAF RBD binding, with Cyclophilin A, read-out: KRAS G13D FRET IC50
[23] = AsPC-1, K-Ras G12D, 5-day treatment, read-out: AsPC-1 Cell Viability IC50
[24] = disruption of BRAF RBD binding, with Cyclophilin A, read-out: KRAS WT FRET IC50
[25] = read-out: AsPC-1 Cell Viability IC50
[26] = ASPC1, AsPC-1 cells, K-Ras G12D, read-out: pERK EC50 (AsPC-1 KRAS G12D)

Chain of KRAS G12V (P01116 1-169 isoform P01116-2 G12V limits assumed): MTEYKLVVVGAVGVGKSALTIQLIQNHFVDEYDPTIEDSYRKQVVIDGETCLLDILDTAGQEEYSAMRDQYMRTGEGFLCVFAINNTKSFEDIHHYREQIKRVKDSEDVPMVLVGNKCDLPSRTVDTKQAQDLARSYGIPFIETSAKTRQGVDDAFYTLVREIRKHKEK
Chain of KRAS G12V (P62937 whole entry): as the sequence (P62937 whole entry) above

Structure (SMILES) | IC50 [1] [nM] | IC50 [2, 12] [nM] | IC50 [3] [nM] | IC50 [4] [nM] | IC50 [5] [nM] | IC50 [6] [nM] | IC50 [7] [nM] | EC50 [8, 13] [nM] | IC50 [9, 14] [nM] | IC50 [10, 15] [nM] | IC50 [11] [nM] | IC50 [1, 16] [nM] | IC50 [2, 17] [nM] | IC50 [3, 18] [nM] | IC50 [4, 19] [nM] | IC50 [5, 20] [nM] | IC50 [6, 21] [nM] | IC50 [7, 22] [nM] | IC50 [9, 23] [nM] | IC50 [11, 24] [nM] | also measured
CCn1c(-c2cnccc2COC)c2c3cc(ccc31)-c1cc(O)cc(c1)C[C@H](NC(=O)[C@H](C(C)C)N(C)C(=O)CN(C)C(=O)[C@@H]1CN1)C(=O)N1CCC[C@H](N1)C(=O)OCC(C)(C)C2 [Compound 8] | 100 to 1000 | 10 to 100 | 10 to 100 | 10 to 100 | 100 to 1000 | 10 to 100 | 100 to 1000 | < 5000 | 1000 to 10000 | 10 to 100 | 100 to 1000 |  |  |  |  |  |  |  |  |  | 
CCn1c(-c2cnccc2COC)c2c3cc(ccc31)-c1cc(O)cc(c1)C[C@H](NC(=O)[C@H](C(C)C)N(C)C(=O)CN(C)C(=O)[C@@H]1CN1Cc1ccccc1)C(=O)N1CCC[C@H](N1)C(=O)OCC(C)(C)C2 (stereo partly shown) [Compound 10] | 100 to 1000 | 10 to 100 | 10 to 100 | 100 to 1000 | 1000 to 10000 | 10 to 100 | 1000 to 10000 | < 5000 | 1000 to 10000 | 10 to 100 | 100 to 1000 |  |  |  |  |  |  |  |  |  | 
CCn1c(-c2cccnc2[C@H](C)OC)c2c3cc(ccc31)-c1cc(O)cc(c1)C[C@H](NC(=O)[C@H](C(C)C)N(C)C(=O)CN(C)C(=O)[C@@H]1CN1)C(=O)N1CCC[C@H](N1)C(=O)OCC(C)(C)C2 [Compound 150] | 10 to 100 | < 10 | < 10 | 10 to 100 | 10 to 100 | 10 to 100 | 10 to 100 | < 5000 | 100 to 1000 | < 10 | 10 to 100 |  |  |  |  |  |  |  |  |  | 
CCn1c(-c2cnccc2COC)c2c3cc(ccc31)-c1cc(O)cc(c1)C[C@H](NC(=O)[C@@H](CNC1=NCCO1)C(C)C)C(=O)N1CCC[C@H](N1)C(=O)OCC(C)(C)C2 [Compound 29] |  |  |  |  |  |  |  |  |  |  |  | 1000 to 10000 | 1000 to 10000 | 1000 to 10000 | 1000 to 10000 | 1000 to 10000 | 1000 to 10000 | 1000 to 10000 | 1000 to 10000 | 1000 to 10000 | IC50 ([10]; NCI-H358, K-Ras G12C, 5-day treatment, read-out: H358 Cell Viability IC50): 1000 to 10000 nM
CCn1c(-c2cnccc2COC)c2c3cc(ccc31)-c1cc(O)cc(c1)C[C@H](NC(=O)[C@H](C(C)C)N(C)C(=O)CN(C)C(=O)[C@@H]1CN1C(=O)OC)C(=O)N1CCC[C@H](N1)C(=O)OCC(C)(C)C2 [Compound 39] |  |  |  |  |  |  |  | < 5000 |  |  |  | 100 to 1000 | 10 to 100 | 10 to 100 | 10 to 100 | 100 to 1000 | 10 to 100 | 100 to 1000 |  | 100 to 1000 | IC50 [9, 25]: 1000 to 10000 nM
CCn1c(-c2cccnc2[C@H](C)OC)c2c3cc(ccc31)-c1cc(O)cc(c1)C[C@H](NC(=O)[C@H](C(C)C)N1CC[C@]3(CCN(C[C@@H]4CN4)C3)C1=O)C(=O)N1CCC[C@H](N1)C(=O)OCC(C)(C)C2 [Compound 176] |  |  |  |  |  |  |  |  |  |  |  | 100 to 1000 | 10 to 100 | 10 to 100 | 10 to 100 | 100 to 1000 | 10 to 100 | 10 to 100 | 1000 to 10000 | 10 to 100 | EC50 [8, 26]: < 5000 nM
CCn1c(-c2cccnc2[C@H](C)OC)c2c3cc(ccc31)-c1cc(O)cc(c1)C[C@H](NC(=O)[C@H](C(C)C)N1CC[C@]3(CCCN(C(=O)[C@H]4CN4)C3)C1=O)C(=O)N1CCC[C@H](N1)C(=O)OCC(C)(C)C2 [Compound 200] |  |  |  |  |  |  |  |  |  |  |  | 10 to 100 | < 10 | < 10 | 10 to 100 | 100 to 1000 | 10 to 100 | 100 to 1000 | 1000 to 10000 | 100 to 1000 | EC50 [8, 26]: < 5000 nM
CCn1c(-c2cccnc2[C@H](C)OC)c2c3cc(ccc31)-c1cc(O)cc(c1)C[C@H](NC(=O)[C@H](C(C)C)N1CC[C@@]3(CCN(C[C@H]4CN4)C3)C1=O)C(=O)N1CCC[C@H](N1)C(=O)OCC(C)(C)C2 (single isomer, unassigned) [Example 139] |  |  |  |  |  |  |  |  |  |  |  | 10 to 100 | < 10 | < 10 | < 10 | 10 to 100 | 10 to 100 | 10 to 100 | 1000 to 10000 | 10 to 100 | EC50 [8, 26]: < 5000 nM
CCn1c(-c2cnccc2COC)c2c3cc(ccc31)-c1cc(O)cc(c1)C[C@H](NC(=O)[C@H](C(C)C)N(C)C(=O)CN(C)C(=O)[C@@H]1N[C@@H]1c1ccccc1)C(=O)N1CCC[C@H](N1)C(=O)OCC(C)(C)C2 [Compound 110] | 100 to 1000 | 10 to 100 | 10 to 100 | 100 to 1000 | 100 to 1000 | 10 to 100 | 100 to 1000 | < 5000 | 1000 to 10000 |  | 10 to 100 |  |  |  |  |  |  |  |  |  | 
CCn1c(-c2cnccc2COC)c2c3cc(ccc31)-c1cc(O)cc(c1)C[C@H](NC(=O)[C@H](C(C)C)N(C)C(=O)CN(C)C(=O)[C@H]1CN1C(C)=O)C(=O)N1CCC[C@H](N1)C(=O)OCC(C)(C)C2 [Example 34, (2R)-1-acetyl-N-(2-(((2S)-1-(((6^3S,4S)-1^1-ethyl-2^5-hydroxy-1^2-(4-(methoxymethyl)pyridin-3-yl)-10,10-dimethyl-5,7-dioxo-6^1,6^2,6^3,6^4,6^5,6^6-hexahydro-1^1H-8-oxa-1(5,3)-indola-6(1,3)-pyridazina-2(1,3)-benzenacycloundecaphane-4-yl)amino)-3-methyl-1-oxobutan-2-yl)(methyl)amino)-2-oxoethyl)-N-methylaziridine-2-carboxamide] |  |  |  |  |  |  |  | < 5000 |  |  |  | 100 to 1000 | 10 to 100 | 10 to 100 | 10 to 100 | 100 to 1000 | 10 to 100 | 100 to 1000 |  | 100 to 1000 | IC50 [9, 25]: 1000 to 10000 nM

Reference: patent US11739074B2, “Ras inhibitors” (Revolution Medicines, Inc., priority 2019, dated 2023)
